Measurements reported in ChEMBL document CHEMBL1146289, “1,5-Biaryl pyrrole derivatives as EP1 receptor antagonists: Structure-activity relationships of 4- and 5-substituted benzoic acid derivatives” (Bioorg Med Chem Lett, 2007).
Each block holds one molecule with its values, some of them ahead of it.

Legend:
[1] = molecular target: T1, Prostaglandin E2 receptor EP1 subtype (Homo sapiens, UniProt P34995); experiment: Displacement of [3H]PGE2 from human recombinant EP1 receptor expressed in CHO cell membranes
T1 sequence (P34995 whole entry): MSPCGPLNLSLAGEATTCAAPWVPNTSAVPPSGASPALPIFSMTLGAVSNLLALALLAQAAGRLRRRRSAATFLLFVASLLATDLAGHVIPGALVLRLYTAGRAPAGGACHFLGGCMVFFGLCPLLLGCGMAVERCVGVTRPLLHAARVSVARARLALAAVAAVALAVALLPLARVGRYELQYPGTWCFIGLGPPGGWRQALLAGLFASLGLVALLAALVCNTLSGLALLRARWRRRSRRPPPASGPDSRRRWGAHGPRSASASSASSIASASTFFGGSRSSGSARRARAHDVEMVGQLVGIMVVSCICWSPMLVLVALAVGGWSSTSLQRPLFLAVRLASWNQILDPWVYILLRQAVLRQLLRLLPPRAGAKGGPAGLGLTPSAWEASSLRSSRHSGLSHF

Rattus norvegicus [2] = experiment: AUC (0-t) in rat at 3 mg/kg, po; type: ADME, organism-based, Plasma; set-up: dose 3 mg/kg, route oral; conditions: in vivo
[3] = Tmax in rat at 3 mg/kg, po; type: ADME, organism-based; set-up: dose 3 mg/kg, route oral; conditions: in vivo
[4] = Cmax in rat at 3 mg/kg, po; type: ADME, organism-based; set-up: dose 3 mg/kg, route oral; conditions: in vivo
Rattus norvegicus [5] = experiment: Reversal of hypersensitivity in rat FCA model of inflammatory pain at 5 mg/kg, po; type: functional
Rattus norvegicus [6] = species: Rattus norvegicus; experiment: Reversal of hypersensitivity in rat FCA model of inflammatory pain; type: functional
Cytochrome P450 1A2 = molecular target: T2, Cytochrome P450 1A2 (Homo sapiens, UniProt P05177); experiment: Inhibition of CYP1A2; type: ADME
T2 sequence (P05177 whole entry): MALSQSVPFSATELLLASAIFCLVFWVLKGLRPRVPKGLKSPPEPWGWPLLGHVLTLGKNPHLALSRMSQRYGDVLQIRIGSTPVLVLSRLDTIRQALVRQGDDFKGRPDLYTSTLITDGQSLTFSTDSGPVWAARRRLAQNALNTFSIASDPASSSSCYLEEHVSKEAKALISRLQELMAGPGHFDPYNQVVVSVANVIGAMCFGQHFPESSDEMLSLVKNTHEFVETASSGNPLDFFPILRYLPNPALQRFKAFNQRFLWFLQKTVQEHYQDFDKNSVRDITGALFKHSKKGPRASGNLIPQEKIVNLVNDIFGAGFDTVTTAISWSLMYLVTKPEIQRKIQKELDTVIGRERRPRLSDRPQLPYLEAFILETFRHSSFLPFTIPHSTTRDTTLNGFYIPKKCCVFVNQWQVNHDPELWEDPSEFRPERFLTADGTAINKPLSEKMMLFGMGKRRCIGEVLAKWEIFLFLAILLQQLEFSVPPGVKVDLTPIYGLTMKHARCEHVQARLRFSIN

Cytochrome P450 2C9 = Cytochrome P450 2C9 (Homo sapiens, UniProt P11712); experiment: Inhibition of CYP2C9; type: ADME
Sequence of Cytochrome P450 2C9 (P11712 whole entry): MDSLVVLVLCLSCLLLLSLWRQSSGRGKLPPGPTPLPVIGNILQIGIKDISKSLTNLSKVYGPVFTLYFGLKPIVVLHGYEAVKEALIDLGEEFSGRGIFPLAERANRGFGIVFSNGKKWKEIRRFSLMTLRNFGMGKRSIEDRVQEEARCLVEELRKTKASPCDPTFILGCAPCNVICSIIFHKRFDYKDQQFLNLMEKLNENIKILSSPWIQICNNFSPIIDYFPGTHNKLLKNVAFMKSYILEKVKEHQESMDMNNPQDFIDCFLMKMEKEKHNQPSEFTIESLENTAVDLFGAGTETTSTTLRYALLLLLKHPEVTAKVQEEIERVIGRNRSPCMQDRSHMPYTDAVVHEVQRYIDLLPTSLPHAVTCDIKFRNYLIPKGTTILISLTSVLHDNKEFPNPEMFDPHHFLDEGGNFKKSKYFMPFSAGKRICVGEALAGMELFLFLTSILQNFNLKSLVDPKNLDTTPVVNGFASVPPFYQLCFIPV

Cytochrome P450 2C19 = Cytochrome P450 2C19 (Homo sapiens, UniProt P33261); experiment: Inhibition of CYP2C19; type: ADME
Sequence of Cytochrome P450 2C19 (P33261 whole entry): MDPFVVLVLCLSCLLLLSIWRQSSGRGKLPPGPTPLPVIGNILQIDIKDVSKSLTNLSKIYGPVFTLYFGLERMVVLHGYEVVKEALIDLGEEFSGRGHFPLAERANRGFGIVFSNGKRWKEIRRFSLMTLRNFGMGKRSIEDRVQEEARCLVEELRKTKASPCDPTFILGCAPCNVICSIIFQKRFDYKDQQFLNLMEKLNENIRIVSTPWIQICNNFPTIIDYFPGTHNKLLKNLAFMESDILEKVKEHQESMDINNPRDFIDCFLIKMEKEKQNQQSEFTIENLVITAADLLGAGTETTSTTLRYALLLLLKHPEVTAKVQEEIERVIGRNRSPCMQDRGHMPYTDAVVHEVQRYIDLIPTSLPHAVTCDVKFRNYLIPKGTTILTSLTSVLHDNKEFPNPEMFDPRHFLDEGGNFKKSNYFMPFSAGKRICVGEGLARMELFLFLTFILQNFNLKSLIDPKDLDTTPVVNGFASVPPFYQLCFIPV

[7] = molecular target: Prostaglandin E2 receptor EP4 subtype (Homo sapiens, UniProt P35408); experiment: Inhibition of EP4 receptor
Sequence of Prostaglandin E2 receptor EP4 subtype (P35408 whole entry): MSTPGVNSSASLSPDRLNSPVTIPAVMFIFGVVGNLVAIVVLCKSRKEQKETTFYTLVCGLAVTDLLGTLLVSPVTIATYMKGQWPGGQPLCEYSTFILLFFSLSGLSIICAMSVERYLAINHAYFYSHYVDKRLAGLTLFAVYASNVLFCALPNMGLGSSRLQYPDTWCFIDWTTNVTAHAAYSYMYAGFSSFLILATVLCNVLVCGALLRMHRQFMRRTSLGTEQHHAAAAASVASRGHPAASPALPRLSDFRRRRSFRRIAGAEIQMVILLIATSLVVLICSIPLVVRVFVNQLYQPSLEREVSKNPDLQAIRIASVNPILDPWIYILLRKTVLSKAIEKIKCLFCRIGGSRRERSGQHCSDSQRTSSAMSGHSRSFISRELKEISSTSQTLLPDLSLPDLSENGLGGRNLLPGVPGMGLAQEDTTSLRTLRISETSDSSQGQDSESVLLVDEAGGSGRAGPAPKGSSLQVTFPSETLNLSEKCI

Cytochrome P450 2D6 = Cytochrome P450 2D6 (Homo sapiens, UniProt P10635); experiment: Inhibition of CYP2D6; type: ADME
Sequence of Cytochrome P450 2D6 (P10635 whole entry): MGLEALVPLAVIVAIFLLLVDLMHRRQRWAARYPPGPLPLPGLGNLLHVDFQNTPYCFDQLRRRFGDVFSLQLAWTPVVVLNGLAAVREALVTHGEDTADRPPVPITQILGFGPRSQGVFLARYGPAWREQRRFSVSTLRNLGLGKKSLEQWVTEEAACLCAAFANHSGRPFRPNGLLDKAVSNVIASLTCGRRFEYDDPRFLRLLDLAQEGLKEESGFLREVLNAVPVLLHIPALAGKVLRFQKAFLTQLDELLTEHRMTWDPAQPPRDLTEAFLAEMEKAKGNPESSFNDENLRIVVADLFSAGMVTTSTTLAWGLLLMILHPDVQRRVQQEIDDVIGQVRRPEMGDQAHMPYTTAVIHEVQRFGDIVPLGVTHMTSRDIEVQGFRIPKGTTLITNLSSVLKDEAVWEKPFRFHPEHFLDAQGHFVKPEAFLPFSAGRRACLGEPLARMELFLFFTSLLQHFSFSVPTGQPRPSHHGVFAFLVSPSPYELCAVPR

Cytochrome P450 3A4 = Cytochrome P450 3A4 (Homo sapiens, UniProt P08684); experiment: Inhibition of CYP3A4; type: ADME
Sequence of Cytochrome P450 3A4 (P08684 whole entry): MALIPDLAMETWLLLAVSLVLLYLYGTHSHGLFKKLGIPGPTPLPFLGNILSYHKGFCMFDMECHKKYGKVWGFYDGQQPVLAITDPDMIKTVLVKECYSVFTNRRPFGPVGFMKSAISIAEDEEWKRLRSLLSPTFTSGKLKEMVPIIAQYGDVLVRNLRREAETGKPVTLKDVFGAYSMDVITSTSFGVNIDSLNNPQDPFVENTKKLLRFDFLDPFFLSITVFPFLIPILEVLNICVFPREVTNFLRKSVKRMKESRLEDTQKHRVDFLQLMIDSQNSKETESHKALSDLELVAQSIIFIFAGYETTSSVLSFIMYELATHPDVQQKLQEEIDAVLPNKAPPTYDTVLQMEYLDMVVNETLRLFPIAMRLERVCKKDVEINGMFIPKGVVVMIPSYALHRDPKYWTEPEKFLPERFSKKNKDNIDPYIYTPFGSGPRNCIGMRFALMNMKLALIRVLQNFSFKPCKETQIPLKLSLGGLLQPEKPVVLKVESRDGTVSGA

[8] = molecular target: T1, Prostaglandin E2 receptor EP1 subtype; experiment: Inhibition of EP1 receptor expressed in CHO cells assessed as calcium mobilization by FLIPR assay; type: functional, cell-based
[9] = molecular target: T3, Prostaglandin E2 receptor EP3 subtype (Homo sapiens, UniProt P43115); experiment: Inhibition of EP3 receptor expressed in CHO cells assessed as calcium mobilization by FLIPR assay; type: functional, cell-based
T3 sequence (P43115 whole entry): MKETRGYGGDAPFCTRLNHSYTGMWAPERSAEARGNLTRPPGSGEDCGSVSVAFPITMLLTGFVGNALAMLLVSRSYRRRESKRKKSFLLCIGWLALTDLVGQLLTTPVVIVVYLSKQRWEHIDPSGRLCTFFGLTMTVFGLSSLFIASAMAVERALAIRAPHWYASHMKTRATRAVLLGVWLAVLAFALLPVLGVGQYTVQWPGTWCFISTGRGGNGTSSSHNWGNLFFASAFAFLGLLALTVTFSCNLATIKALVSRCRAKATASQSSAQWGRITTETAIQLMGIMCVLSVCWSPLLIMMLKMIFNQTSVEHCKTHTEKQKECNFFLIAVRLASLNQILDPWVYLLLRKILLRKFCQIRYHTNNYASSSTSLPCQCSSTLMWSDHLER

Thromboxane A2 receptor = molecular target: T4, Thromboxane A2 receptor (Homo sapiens, UniProt P21731); experiment: Inhibition of TP receptor
T4 sequence (P21731 whole entry): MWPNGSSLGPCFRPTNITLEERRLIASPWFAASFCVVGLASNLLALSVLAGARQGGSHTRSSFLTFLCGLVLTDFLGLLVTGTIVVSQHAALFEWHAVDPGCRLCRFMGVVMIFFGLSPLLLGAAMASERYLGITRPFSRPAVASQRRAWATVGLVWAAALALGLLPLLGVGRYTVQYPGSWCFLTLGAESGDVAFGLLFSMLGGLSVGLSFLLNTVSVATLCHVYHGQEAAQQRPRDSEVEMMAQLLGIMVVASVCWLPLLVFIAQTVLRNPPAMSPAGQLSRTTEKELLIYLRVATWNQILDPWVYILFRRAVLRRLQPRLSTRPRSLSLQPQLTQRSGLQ

[10] = molecular target: T5, Thromboxane A2 receptor (Homo sapiens) (UniProt P21731)
T5 sequence (whole entry): T4 sequence (P21731 whole entry)

SMILES: Cc1ccc(-c2cc(C(F)(F)F)ccc2OCc2ccccc2)n1-c1cc(C(=O)O)ccc1F
IC50 [1]: 6.31 nM

SMILES: Cc1ccc(-c2cc(Cl)ccc2OCc2ccccc2)n1-c1cc(N)cc(C(=O)O)c1
IC50 [1]: 3.98 nM

SMILES: CC(=O)N(C)c1cc(C(=O)O)cc(-n2c(C)ccc2-c2cc(Br)ccc2OCc2ccc(F)cc2F)c1
IC50 [1]: 1.26 nM

SMILES: COC(=O)Nc1cc(C(=O)O)cc(-n2c(C)ccc2-c2cc(Cl)ccc2OCc2ccccc2)c1
IC50 [1]: 5.01 nM

SMILES: CCOc1ccc(C(=O)O)cc1-n1c(C)ccc1-c1cc(Cl)ccc1OCc1ccccc1
IC50 [1]: 126 nM

SMILES: CC(=O)Nc1cc(C(=O)O)cc(-n2c(C)ccc2-c2cc(Br)ccc2OCc2ccc(F)cc2)c1
IC50 [1]: 0.794 nM

SMILES: CC(=O)Nc1cc(C(=O)O)cc(-n2c(C)ccc2-c2cc(F)ccc2OCc2ccc(F)cc2)c1
IC50 [1]: 3.98 nM
AUC (Rattus norvegicus [2]): 60 kg·min/L
Tmax [3]: 30 min
Cmax [4]: 2950 nM
Activity (Rattus norvegicus [5]): 55%

SMILES: Cc1ccc(-c2cc(Br)ccc2OCc2ccc(F)cc2F)n1-c1cc(C(=O)O)cc(N2CCCC2=O)c1
IC50 [1]: 2 nM

SMILES: Cc1ccc(-c2cc(Cl)ccc2OCc2ccc(F)cc2)n1-c1cc(NS(C)(=O)=O)cc(C(=O)O)c1
IC50 [1]: 1.58 nM

SMILES: Cc1ccc(-c2cc(Br)ccc2OCc2ccccc2)n1-c1cc(N)cc(C(=O)O)c1
IC50 [1]: 3.16 nM

SMILES: Cc1ccc(-c2cc(C(F)(F)F)ccc2OCc2ccc(F)cc2)n1-c1cc(C(=O)O)cc(N2CCCS2(=O)=O)c1
IC50 [1]: 7.94 nM

SMILES: Cc1ccc(-c2cc(Cl)ccc2OCc2ccccc2)n1-c1cc(C(=O)O)cc(N2CCCS2(=O)=O)c1
IC50 [1]: 5.01 nM

SMILES: Cc1ccc(-c2cc(Br)ccc2OCc2ccc(F)cc2F)n1-c1cc(C(=O)O)cc(N2CCCCC2=O)c1
IC50 [1]: 1.26 nM

SMILES: CC(=O)Nc1cc(C(=O)O)cc(-n2c(C)ccc2-c2cc(C(F)(F)F)ccc2OCc2ccccc2)c1
IC50 [1]: 1.26 nM
Tmax [3]: 42 min
Cmax [4]: 20 nM

SMILES: CC(=O)Nc1cc(C(=O)O)cc(-n2c(C)ccc2-c2cc(Cl)ccc2OCc2ccccc2)c1
IC50 [1]: 2 nM
AUC (Rattus norvegicus [2]): 8 kg·min/L
Tmax [3]: 30 min
Cmax [4]: 580 nM

SMILES: Cc1ccc(-c2cc(Cl)ccc2OCc2ccccc2)n1-c1cc(Br)cc(C(=O)O)c1
IC50 [1]: 5.01 nM
AUC (Rattus norvegicus [2]): 6 kg·min/L
Tmax [3]: 30 min
Cmax [4]: 310 nM

SMILES: CC(=O)Nc1cc(C(=O)O)cc(-n2c(C)ccc2-c2cc(Br)ccc2OCc2ccccc2)c1
IC50 [1]: 1.26 nM

SMILES: COc1ccc(C(=O)O)cc1-n1c(C)ccc1-c1cc(Cl)ccc1OCc1ccccc1
IC50 [1]: 251 nM

SMILES: CC(=O)Nc1cc(C(=O)O)cc(-n2c(C)ccc2-c2cc(Cl)ccc2OCc2ccc(F)cc2)c1
IC50 [1]: 2.51 nM
AUC (Rattus norvegicus [2]): 20 kg·min/L
Tmax [3]: 30 min
Cmax [4]: 2080 nM
Activity (Rattus norvegicus [5]): 94%

Now from value to molecule, other results behind:

IC50 [1]: 3.98 nM
SMILES: Cc1ccc(-c2cc(Br)ccc2OCc2ccc(F)cc2F)n1-c1cc(Cl)cc(C(=O)O)c1

IC50 [1]: 0.501 nM
AUC (Rattus norvegicus [2]): < 1 kg·min/L
Tmax [3]: 30 min
Cmax [4]: 50 nM
SMILES: Cc1ccc(-c2cc(Br)ccc2OCc2ccc(F)cc2F)n1-c1cc(N)cc(C(=O)O)c1

IC50 [1]: 10 nM
SMILES: Cc1ccc(-c2cc(Cl)ccc2OCc2ccc(F)cc2F)n1-c1cc(C(=O)O)cc(C(F)(F)F)c1

IC50 [1]: 12.6 nM
SMILES: Cc1ccc(-c2cc(Br)ccc2OCc2ccc(F)cc2F)n1-c1cc(C(=O)O)cc(C(F)(F)F)c1

IC50 [1]: 0.398 nM
AUC (Rattus norvegicus [2]): 21 kg·min/L
Tmax [3]: 30 min
Cmax [4]: 1410 nM
IC50 (Cytochrome P450 1A2): ≥ 18000 nM
IC50 (Cytochrome P450 2C9): ≥ 18000 nM
IC50 (Cytochrome P450 2C19): ≥ 18000 nM
IC50 [7]: 158 nM
IC50 (Cytochrome P450 2D6): ≥ 18000 nM
IC50 (Cytochrome P450 3A4): ≥ 18000 nM
Ki [8]: 0.1 nM
Ki [9]: 501 nM
IC50 (Thromboxane A2 receptor): 2.51 nM
pKb [10]: 9
SMILES: CC(=O)Nc1cc(C(=O)O)cc(-n2c(C)ccc2-c2cc(Br)ccc2OCc2ccc(F)cc2F)c1
Activity (Rattus norvegicus [5]): 72%
ED50 (Rattus norvegicus [6]): 1.1 mg/kg

IC50 [1]: 1.58 nM
SMILES: CC(=O)Nc1cc(C(=O)O)cc(-n2c(C)ccc2-c2cc(I)ccc2OCc2ccc(F)cc2F)c1

IC50 [1]: 6.31 nM
AUC (Rattus norvegicus [2]): 6 kg·min/L
Tmax [3]: 30 min
Cmax [4]: 230 nM
SMILES: Cc1ccc(-c2cc(Br)ccc2OCc2ccc(F)cc2)n1-c1cc(C(=O)O)ccc1F

IC50 [1]: 6.31 nM
AUC (Rattus norvegicus [2]): 4 kg·min/L
Tmax [3]: 30 min
Cmax [4]: 230 nM
SMILES: Cc1ccc(-c2cc(Cl)ccc2OCc2ccc(F)cc2F)n1-c1cc(C(=O)O)ccc1F

IC50 [1]: 5.01 nM
SMILES: Cc1ccc(-c2cc(Cl)ccc2OCc2ccc(F)cc2F)n1-c1cc(Br)cc(C(=O)O)c1

IC50 [1]: 316 nM
SMILES: Cc1ccc(-c2cc(Cl)ccc2OCc2ccc(F)cc2)n1-c1cc(C(=O)O)ccc1Cl

IC50 [1]: 3.98 nM
SMILES: Cc1ccc(-c2cc(Cl)ccc2OCc2ccc(F)cc2F)n1-c1cc(Cl)cc(C(=O)O)c1

IC50 [1]: 158 nM
SMILES: Cc1ccc(-c2cc(Cl)ccc2OCc2ccc(F)cc2F)n1-c1cc(C(=O)O)ccc1Cl
